Measured values from patent US20090023700A1, “NEUROPROTECTIVE TREATMENTS” (University of Louisville Research Foundation, priority 2007, published 2009).

Assays:
[1] = system: T9 contusive spinal cord injury; assay: Semmes-Weinstein filament test for at-level pain (allodynia); format: in vivo, rat; conditions: 100 μM, 28 d L5/6 infusion
Method: (§1) Whether bpV(phen) might have detrimental side effects, such as inducing pain at the level of the injury, was tested. Severe spinal cord injury can induce hypersensitivity and mechanical allodynia (a painful response to a nonpainful tactile skin stimulus) at the level of injury. […] Differences between any of the bpV(phen)- and PBS-treated groups in the overall health status, general behavior, and grooming of the rats were not observed.

[2] = Observation of overall health status, general behavior and grooming; format: in vivo, rat; conditions: any of the bpV(phen)- and PBS-treated groups
Method: as §1

[3] = system: Iba1; assay: Iba1 immunostaining (microglial/macrophage activation) after T9 contusion; format: in vivo, rat; conditions: 7 d infusion started 4 h after injury
Method: Inflammation is a major contributor to white matter loss after spinal cord injury. Therefore, to find a potential mechanism for the axon- and myelin-protective effects of bpV(phen), its effects on Iba1 immunostaining were measured as a marker for microglial/macrophage activation and inflammation. […] Whereas, PBS-infused rats had clear infiltrates of activated macrophages, those infused with bpV(phen) had predominantly […] microglial cells. […] The extent of white matter loss in the dorsal column at the epicenter correlated to the extent of microglia/macrophage activation at the epicenter (FIG. 8B). The extent of inflammation 1 mm rostral to the injury correlated with the loss of CTB-labeled sensory projections in the gracile nucleus (FIG. 8C) but not with that seen at the epicenter (p=0.3) or caudal to the lesion (p=0.57). […] Conversely, the possibility that bpV(phen) affected inflammation at other times over the 7 d period cannot be excluded.
(§2) Anterogradely labeled sensory fibers and terminals were visualized in every third section through both gracile nuclei by DAB-based immunostaining for CTB as described previously (Baker et al. (2007) Exp Neurol 205:82-91). The lumbar sections were stained to ensure that the CTB injections were successful as evidenced by traced afferents and motor neurons. […] The epicenter of maximal injury was determined by the rostrocaudal level with the least amount of spared white matter per transverse section. […]
Quantitative measurements and statistics. The extent of sensory innervation of the gracile nucleus was determined by measuring the CTB-labeled terminal fiber area in every third section as described previously (Baker et al. (2007) Exp Neurol 205:82-91). In short, images of every third section through the right and left gracile nuclei were analyzed using the density slice feature of the Scion Image software. […] Images of EC-stained sections were captured, and the positive areas were measured with Scion Image. […]

[4] = system: RECA1; assay: RECA1 immunostaining (dorsal column blood vessels at epicenter) after T9 contusion; format: in vivo, rat; conditions: for area of blood vessels (RECA1) in the dorsal column: 7 d infusion started immediately after injury
Method: Another potential contributor to axon loss is ischemia caused by blood vessel loss. To test this possibility, the same sections were analyzed for the extent of endothelial cell/blood vessel sparing by immunostaining for RECA1. […] Therefore, epicenter RECA1 was measured in additional 7 d postinjury groups, excluding those infused at the epicenter and those with an epicenter transection (SEP), which damaged the tissue. The bpV(phen) treatment (started immediately after the injury) increased the area of blood vessels in the dorsal column in those rats infused with 30 and 100 μM bpV(phen) (FIG. 8E). […] However, there was no correlation between RECA1- and EC-stained dorsal column epicenter white matter (p=0.98).
as §2
Quantitative measurements and statistics. The extent of sensory innervation of the gracile nucleus was determined by measuring the CTB-labeled terminal fiber area in every third section as described previously (Baker et al. (2007) Exp Neurol 205:82-91). In short, images of every third section through the right and left gracile nuclei were analyzed using the density slice feature of the Scion Image software. […] Images of EC-stained sections were captured, and the positive areas were measured with Scion Image. […] The number of spared myelinated axons at C3 was counted in semithin sections using a 63× oil objective in 15.7×15.7 μm grids placed over the middle part of each fasciculus gracilis (see FIG. 4D-4F). […]

[5] = system: PTPs; conditions: cited from earlier work
[6] = system: rat cardiomyocytes; conditions: cited from earlier work
[7] = system: Ser/Thr phosphatases; conditions: cited from earlier work
[8] = system: T9 contusive spinal cord injury; assay: Grid-walking sensorimotor test after T9 contusion
Method: Rats received a 0.3 mm contusion at T9 and 4 h later were implanted with a lumbar catheter to start infusions with PBS (n=9) or PBS containing 100 μM bpV(phen) (n=9). The treatment was maintained for 28 d by replacing the Alzet pumps every week with ones containing fresh reagents (FIG. 1A). Weekly hindlimb grid-walking performance was used to test sensorimotor function, which is in part dependent on the primary afferents and second-order propriospinal axons of the fasciculus gracilis in the dorsal columns. […] Naive rats take ˜150 s to complete the task.
Baseline values were determined a few days before the contusion. Sensorimotor function was tested by voluntary walking on a 45×45 inch grid with 1.5 inch holes. The hindlimb footfalls were called out by two investigators observing from different sides and recorded by a third. The test was completed after 90 s of walking was observed, and the total time was recorded.

SMILES: O.O.O.OO.OO.[K+].[OH-].[V].c1cnc2c(c1)ccc1cccnc12 [bpV(phen), potassium bisperoxo(1,10-phenanthroline)oxovanadate (V)]
- induction of pain by chronic infusion [1]: do not induce pain
- Semmes-Weinstein filament size evoking a response (pain at level of injury) ([1]; entire test period): not different from those of the PBS group
- differences versus PBS groups in overall health status, general behavior and grooming [2]: not observed
- area of Iba1-immunostained structures ([3]; 1 mm caudal to epicenter, p=0.49): no difference
- area of Iba1-immunostained structures ([3]; 1 mm rostral to epicenter, p<0.005): significantly reduced
- area of Iba1-immunostained structures ([3]; at the epicenter, p=0.053): trend of a reduction
- area of blood vessels (RECA1) in the dorsal column ([4]; 30 μM): increased
- area of blood vessels (RECA1) in the dorsal column ([4]; 100 μM): increased
- blood vessels (RECA1) in the dorsal column at the epicenter ([4]; 7 d infusion started 4 h after injury, area not significantly different from sham): sparing
- inhibition of PTPs [5]: inhibits
- glutathione concentration [6]: does not change
- inhibition of Ser/Thr phosphatases [7]: not
- total time to perform 90 s of grid walking ([8]; 100 μM L5/6 infusion started 4 h after contusion, 8 d, PBS 219 s, naive ~150 s): 151 s
- number of hindlimb footfalls (sum of both hindlimbs), grid walk ([8]; 100 μM L5/6 infusion started 4 h after contusion, 8 d test, PBS 29+/−6, before contusion 7+/−1): 14+/−2
- rats within normal range of footfalls (3-14) ([8]; 100 μM L5/6 infusion started 4 h after contusion, day 8, PBS one of nine): seven of nine
- number of hindlimb footfalls, grid walk ([8]; 100 μM, 28 d L5/6 infusion started 4 h after contusion, 29 d test, PBS 13+/−2): 6+/−1
- total time to perform 90 s of grid walking ([8]; 100 μM, 28 d L5/6 infusion started 4 h after contusion, 36 d, PBS 200 s): 125 s
